Assay results published in patent US9969744B2, “Compounds for use in cognition improvement” (FUNDACIÓN PARA LA INVESTIGACIÓN MÉDICA APLICADA, priority 2014, dated 2018).
Marks after values point to notes of the source that are not given here.

Experiment: Pharmacokinetics: plasma and brain concentration in wild type mice
Assay type: in vivo
Conditions: 1 hour after 40 mg/Kg i.p.
Procedure: Plasma and brain samples for measuring compounds concentrations were collected at predetermined times from four wild type mice per point. Three time points were measured: 0.25, 0.5 and 1.0 hour. Compounds concentration was measured using a Xevo-TQ MS triple quadropole mass spectrometer with an electrospray ionization (ESI) source and an Acquity UPLC (Waters, Manchester, UK).
Compounds solutions were prepared by dissolving the samples in DMSO and this solution was made up to a final volume by addition of a mixture of Tween 20 and 0.9% NaCl (1/1/8, v:v:v, DMSO/Tween 20/saline). Compounds were injected as a single intraperitoneal injection. Animals were killed by decapitation.
Plasma. Blood was collected into tubes containing EDTA and plasma was collected via centrifugation (4° C., 13200 rpm, 5 min) and stored at −80° C. until analysis.
Brain. Brains were collected immediately after mice death. The brains were excised, weighed and frozen at −80° C. until further process for analysis.
Chromatographic separation was performed by gradient elution at 0.4 mL/min using an Acquity UPLC BEH C18 column (100×2.1 mm, 1.7 μm particle size; Waters). The mobile phase consisted of A: water with 0.1% formic acid, B: methanol with 0.1% formic acid. After 1.5 min at the initial condition of 95% A, solvent B was increased from 5% to 100% over 2 min, maintained at 100% for 1.5 min, then a linear gradient to initial conditions was applied for 0.1 min and maintained for 3.4 minutes to re-equilibrate the column, giving a cycle time of 8.5 min. The autosampler temperature was set at 10° C. and column temperature at 45° C.
Compounds were monitored using a triple quadrupole mass spectrometer equipped with an electrospray ionization interface. For detection and quantification, a capillary voltage of 3.5 kV and a cone voltage of 38 V were used. Source and desolvation temperatures were 150° C. and 650° C., respectively. Ultra-high purity nitrogen was used for cone gas (75 L h^−1) and desolvation gas (1000 L h^−1). The electrospray ionization operated in the positive mode, and the collision gas used was ultra-pure argon at a flow rate of 0.15 mL min^−1.
Quantification was achieved by external calibration using matrix-matched standards. Concentrations were calculated using a weighted least-squares linear regression (W=1/x). Calibration standards were prepared by adding the appropriate volume of diluted solutions of the compound (made in a mixture of methanol and water, 50:50, v:v) to aliquots of 50 uL of blank plasma or to 75 mg of homogenized blank brain. 2% formic acid in acetonitrile was added to precipitate the proteins. The mixture was then agitated for 10 min and centrifuged at 13200 rpm for 5 min at 4° C. […]

CCCc1nn(C)c2c(=O)[nH]c(-c3cc(Cc4ccc(C(=O)Nc5ccccc5N)cc4)ccc3OCC)nc12 [Example 1-11, N-(2-aminophenyl)-4-[[4-ethoxy-3-(1-methyl-7-oxo-3-propyl-6H-pyrazolo[4,3-d]pyrimidin-5-yl)phenyl]methyl]benzamide]
Crosses BBB?: Yes
C (brain) (standard deviation in brackets): 1903.4 (565.8)^a nmol/Kg
C (plasma) (standard deviation in brackets): 12132.5 (1762.9)^a nM
Kp at 1 h (mouse, brain/plasma, intraperitoneal, read-out: Brain/Plasma ratio): 0.157
